The values below are quoted from earlier work in patent publication US9968546B2, “Topical composition for skin treatment to reduce lines and wrinkles of the face and body using a dual DNA repair mechanism to address damage caused by aging and ultra-violet induced damage to the skin with combination of skin turgor enhancement compounds” (priority 2015, dated 2018).

The subject of one series is melanin synthesis. Particulars: concentration of 0.1%.
The conditions of series [1]: clinically, versus regular Vitamin E.

On to `CC1(C)C=Cc2c(ccc3c2OC[C@@H](c2ccc(O)cc2O)C3)O1` [Glabridin], for which, in the series on tyrosinase (versus Kojic acid), the “tyrosinase-inhibition activity relative to Kojic acid” value is on record as 25 times. In addition, in the series on tyrosinase (versus ascorbic acid), the “tyrosinase-inhibition activity relative to ascorbic acid” value is reported as 75 times.
For `CCCCCCCCC(CCCCCC)C(=O)OC[C@H](OC(=O)C(CCCCCC)CCCCCCCC)[C@H]1OC(=O)C(OC(=O)C(CCCCCC)CCCCCCCC)=C1OC(=O)C(CCCCCC)CCCCCCCC` (stereo partly drawn) [tetrahexyldecyl ascorbate], the “reduction of melanin synthesis” value with melanin synthesis was 80%. For the same compound, the “8-OHdG induced by UV-A radiation” value in the series with 8-OHdG was “decreases”. In addition, in the series with p53 expression, the “p53 expression induced by UV-B radiation” value was “decreases”.
Tocotrienol: in series [1], the “strength and effectiveness at repairing skin damage relative to regular Vitamin E” value was 40-50 times.
